In this assay the target is T1, USP7 (Homo sapiens, UniProt Q93009).
T1 construct: full length human USP7 protein; made in house
The assay can be described thus: USP7, Ub-PLA2 assay. The assay is classed as biochemical. The settings on record: Ub-PLA2 / NBD C6-HPC fluorescence, 30 minute preincubation; read-out: EC50 for inhibition of USP7. A digest of the protocol:
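Compounds tested against USP7 with DMSO vehicle control and NEM-treated wells as background. Fluorescence (RFU) read-out; % inhibition normalized per plate to mean DMSO and NEM controls.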

The source of these data is patent US8680139B2 (Progenra, priority 2009, dated 2014).

Each structure is given as a SMILES string. Values joined by “and” are separate entries in the source; they are usually repeats but may differ in a detail not shown here. Equal values may be shown once.

One may read the EC50 as the concentration at which the effect is half-maximal.

T1 sequence (Q93009 whole entry): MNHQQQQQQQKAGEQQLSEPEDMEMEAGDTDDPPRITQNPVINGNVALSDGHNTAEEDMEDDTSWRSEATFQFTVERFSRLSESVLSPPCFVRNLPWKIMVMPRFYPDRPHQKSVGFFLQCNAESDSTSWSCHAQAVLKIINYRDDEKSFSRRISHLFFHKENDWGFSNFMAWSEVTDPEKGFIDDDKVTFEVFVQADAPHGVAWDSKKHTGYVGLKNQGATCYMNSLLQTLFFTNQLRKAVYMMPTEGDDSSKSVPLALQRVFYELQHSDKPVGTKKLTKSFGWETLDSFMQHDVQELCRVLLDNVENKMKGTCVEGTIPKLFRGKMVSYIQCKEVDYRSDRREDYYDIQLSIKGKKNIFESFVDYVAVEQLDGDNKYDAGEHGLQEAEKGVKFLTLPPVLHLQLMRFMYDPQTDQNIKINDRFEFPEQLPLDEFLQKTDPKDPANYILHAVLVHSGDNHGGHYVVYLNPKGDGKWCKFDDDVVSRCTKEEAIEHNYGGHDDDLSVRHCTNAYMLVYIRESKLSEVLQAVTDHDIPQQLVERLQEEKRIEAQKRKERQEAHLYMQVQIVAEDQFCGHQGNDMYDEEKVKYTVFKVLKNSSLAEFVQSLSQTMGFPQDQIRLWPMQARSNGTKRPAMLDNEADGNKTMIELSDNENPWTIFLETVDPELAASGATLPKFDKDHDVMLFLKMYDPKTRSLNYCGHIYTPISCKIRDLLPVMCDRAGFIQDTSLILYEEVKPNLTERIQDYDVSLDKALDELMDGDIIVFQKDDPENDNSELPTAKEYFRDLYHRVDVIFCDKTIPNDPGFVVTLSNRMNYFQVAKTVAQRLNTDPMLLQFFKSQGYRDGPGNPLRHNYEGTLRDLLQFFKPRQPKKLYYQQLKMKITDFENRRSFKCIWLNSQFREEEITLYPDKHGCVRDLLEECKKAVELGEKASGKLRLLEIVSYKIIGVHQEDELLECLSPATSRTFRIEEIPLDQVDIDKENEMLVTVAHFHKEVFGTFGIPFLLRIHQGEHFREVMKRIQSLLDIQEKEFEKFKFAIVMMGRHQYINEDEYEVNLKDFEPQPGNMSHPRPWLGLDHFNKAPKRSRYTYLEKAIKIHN

On to `C[S+]([O-])CCCNC(=O)c1cc([N+](=O)[O-])c(Sc2c(Cl)cncc2Cl)s1` (stereo not drawn) [Example 244, 5-((3,5-dichloropyridin-4-yl)thio)-N-(3-(methylsulfinyl)propyl)-4-nitrothiophene-2-carboxamide], for which the EC50 was 1000 to 10000 nM. Then `O=C(c1cccc([N+](=O)[O-])c1)c1cc([N+](=O)[O-])c(Sc2ccc(Cl)cc2Cl)s1` [Example 31, [5-(2,4-dichlorophenyl)sulfanyl-4-nitro-2-thienyl]-(3-nitrophenyl)methanone], with > 10000 nM; and `CC(=O)c1cc([N+](=O)[O-])c(Sc2cc(C(F)(F)F)cc(C(F)(F)F)c2)s1` [Example 40, 1-[5-[3,5-bis(trifluoromethyl)phenyl]sulfanyl-4-nitro-2-thienyl]ethanone], with 1000 to 10000 nM. In the case of `CN1CCC(NC(=O)c2cc([N+](=O)[O-])c(Oc3c(Cl)cccc3Cl)s2)CC1` [Example 261, 5-(2,6-dichlorophenoxy)-N-(1-methylpiperidin-4-yl)-4-nitrothiophene-2-carboxamide], the EC50 is > 10000 nM. Then `CSCCCNC(=O)c1cc([N+](=O)[O-])c(Sc2c(Cl)cncc2Cl)s1` [Example 194, 5-((3,5-dichloropyridin-4-yl)thio)-N-(3-(methylthio)propyl)-4-nitrothiophene-2-carboxamide], with ≤ 1000 nM; and `COc1ccc(CNC(C)c2cc([N+](=O)[O-])c(Sc3ccc(Cl)cc3Cl)s2)cc1` (stereo not drawn) [Example 30, 1-[5-(2,4-dichlorophenyl)sulfanyl-4-nitro-2-thienyl]-N-[(4-methoxyphenyl)methyl]ethanamine], with > 10000 nM; and `CCOC(=O)CNC(=O)c1cc([N+](=O)[O-])c(Sc2c(Cl)cncc2Cl)s1` [Example 209, Ethyl 2-(5-((3,5-dichloropyridin-4-yl)thio)-4-nitrothiophene-2-carboxamido)acetate], with 1000 to 10000 nM. In the case of `CC(=O)c1cc([N+](=O)[O-])c(Sc2c(F)c(F)c(Cl)c(F)c2F)s1` [Example 272, 1-(5-((4-chloro-2,3,5,6-tetrafluorophenyl)thio)-4-nitrothiophen-2-yl)ethanone], the EC50 was 1000 to 10000 nM and > 10000 nM. Consider `O=C(CNC(=O)c1cc([N+](=O)[O-])c(Sc2c(Cl)cncc2Cl)s1)NCC(F)F` [Example 219, 5-((3,5-dichloropyridin-4-yl)thio)-N-(2-((2,2-difluoroethyl)amino)-2-oxoethyl)-4-nitrothiophene-2-carboxamide], for which the EC50 fell in the range of 1000 to 10000 nM.

As to `CN1CCC(NC(=O)c2cc([N+](=O)[O-])c(Sc3c(Cl)cccc3Cl)s2)CC1` [Example 269, 5-((2,6-dichlorophenyl)thio)-N-(1-methylpiperidin-4-yl)-4-nitrothiophene-2-carboxamide], the EC50 is 1000 to 10000 nM. Then `CN1CCC(NC(=O)c2cc([N+](=O)[O-])c(Sc3ccc(Cl)cc3Cl)s2)CC1` [Example 81, 5-((2,4-dichlorophenyl)thio)-N-(1-methylpiperidin-4-yl)-4-nitrothiophene-2-carboxamide], with 1000 to 10000 nM.

On to `CC(=O)c1cc(I)c(Sc2ccc(Cl)cc2Cl)s1` [Example 20, 1-[5-(2,4-dichlorophenyl)sulfanyl-4-iodo-2-thienyl]ethanone], for which the EC50 is > 10000 nM.

`O=C(NCc1cccc(F)c1)c1cc([N+](=O)[O-])c(Sc2c(Cl)cncc2Cl)s1` [Example 128, 5-((3,5-dichloropyridin-4-yl)thio)-N-(3-fluorobenzyl)-4-nitrothiophene-2-carboxamide]: the EC50 is ≤ 1000 nM. Then `O=C(NCCCN1CCC(O)CC1)c1cc([N+](=O)[O-])c(Sc2c(Cl)cncc2Cl)s1` [Example 225, 5-((3,5-dichloropyridin-4-yl)thio)-N-(3-(4-hydroxypiperidin-1-yl)propyl)-4-nitrothiophene-2-carboxamide], with ≤ 1000 nM. Then `O=C(NCCCc1ccccn1)c1cc([N+](=O)[O-])c(Sc2c(Cl)cncc2Cl)s1` [Example 115, 5-((3,5-dichloropyridin-4-yl)thio)-4-nitro-N-(3-(pyridin-2-yl)propyl)thiophene-2-carboxamide], with ≤ 1000 nM; and `O=C(NCCN1CCOCC1)c1cc([N+](=O)[O-])c(Sc2c(Cl)cncc2Cl)s1` [Example 59, 5-((3,5-dichloropyridin-4-yl)thio)-N-(2-morpholinoethyl)-4-nitrothiophene-2-carboxamide], with 1000 to 10000 nM; and `O=C(Nc1cccc(F)c1)c1cc([N+](=O)[O-])c(Sc2c(Cl)cncc2Cl)s1` [Example 138, 5-((3,5-dichloropyridin-4-yl)thio)-N-(3-fluorophenyl)-4-nitrothiophene-2-carboxamide], with ≤ 1000 nM. Take `O=C(c1cc([N+](=O)[O-])c(Sc2c(Cl)cncc2Cl)s1)N1CCC(F)CC1` [Example 74, (5-((3,5-dichloropyridin-4-yl)thio)-4-nitrothiophen-2-yl)(4-fluoropiperidin-1-yl)methanone]: the EC50 fell in the range of 1000 to 10000 nM. Then `O=C(c1cc([N+](=O)[O-])c(Sc2c(Cl)cncc2Cl)s1)N1CCN(CCO)CC1` [Example 61, (5-((3,5-dichloropyridin-4-yl)thio)-4-nitrothiophen-2-yl)(4-(2-hydroxyethyl)piperazin-1-yl)methanone], with 1000 to 10000 nM. The same measure for `COc1cc(CNC(=O)c2cc([N+](=O)[O-])c(Sc3c(Cl)cncc3Cl)s2)cc(OC)c1` [Example 69, 5-((3,5-dichloropyridin-4-yl)thio)-N-(3,5-dimethoxybenzyl)-4-nitrothiophene-2-carboxamide]: 1000 to 10000 nM.

In the case of `O=C(Nc1ccc(F)c(Cl)c1)c1cc([N+](=O)[O-])c(Sc2c(Cl)cncc2Cl)s1` [Example 137, N-(3-chloro-4-fluorophenyl)-5-((3,5-dichloropyridin-4-yl)thio)-4-nitrothiophene-2-carboxamide], the EC50 was ≤ 1000 nM. Regarding `O=C(NC1CCN(C2CC2)C1)c1cc([N+](=O)[O-])c(Sc2c(Cl)cncc2Cl)s1` (stereo not drawn) [Example 198, N-(1-cyclopropylpyrrolidin-3-yl)-5-((3,5-dichloropyridin-4-yl)thio)-4-nitrothiophene-2-carboxamide], the EC50 lay within 1000 to 10000 nM. Then `O=C(NCc1ccccc1Cl)c1cc([N+](=O)[O-])c(Sc2c(Cl)cncc2Cl)s1` [Example 60, N-(2-chlorobenzyl)-5-((3,5-dichloropyridin-4-yl)thio)-4-nitrothiophene-2-carboxamide], with 1000 to 10000 nM; and `COc1ccc(NC(=O)c2cc([N+](=O)[O-])c(Sc3c(Cl)cncc3Cl)s2)c(C)c1` [Example 132, 5-((3,5-dichloropyridin-4-yl)thio)-N-(4-methoxy-2-methylphenyl)-4-nitrothiophene-2-carboxamide], with ≤ 1000 nM. The same measure for `CC(=O)c1cc([N+](=O)[O-])c(Sc2ccc(-c3ccccc3)cc2)s1` [Example 16, 1-[4-nitro-5-(4-phenylphenyl)sulfanyl-2-thienyl]ethanone]: > 10000 nM; for `O=C1COc2ccc(Sc3sc(C(=O)Nc4cc(C5CC5)n[nH]4)cc3[N+](=O)[O-])cc2N1` [Example 248, N-(3-cyclopropyl-1H-pyrazol-5-yl)-4-nitro-5-((3-oxo-3,4-dihydro-2H-benzo[b][1,4]oxazin-6-yl)thio)thiophene-2-carboxamide]: 1000 to 10000 nM. Then `CC(=O)c1cc([N+](=O)[O-])c(Sc2cnc3ccccc3n2)s1` [Example 37, 1-(4-nitro-5-quinoxalin-2-ylsulfanyl-2-thienyl)ethanone], with 1000 to 10000 nM; and `O=C(Nc1ccc(F)cc1C(F)(F)F)c1cc([N+](=O)[O-])c(Sc2c(Cl)cncc2Cl)s1` [Example 139, 5-((3,5-dichloropyridin-4-yl)thio)-N-(4-fluoro-2-(trifluoromethyl)phenyl)-4-nitrothiophene-2-carboxamide], with ≤ 1000 nM; and `O=C(NCc1cccnc1)c1cc([N+](=O)[O-])c(Sc2c(Cl)cncc2Cl)s1` [Example 101, 5-((3,5-dichloropyridin-4-yl)thio)-4-nitro-N-(pyridin-3-ylmethyl)thiophene-2-carboxamide], with ≤ 1000 nM. Consider `O=C(Nc1cc(C(F)(F)F)n[nH]1)c1cc([N+](=O)[O-])c(Sc2c(Cl)cncc2Cl)s1` [Example 164, 5-((3,5-dichloropyridin-4-yl)thio)-4-nitro-N-(3-(trifluoromethyl)-1H-pyrazol-5-yl)thiophene-2-carboxamide], for which the EC50 was ≤ 1000 nM. The same measure for `O=C(NCc1ccc(OC(F)(F)F)cc1)c1cc([N+](=O)[O-])c(Sc2c(Cl)cncc2Cl)s1` [Example 114, 5-((3,5-dichloropyridin-4-yl)thio)-4-nitro-N-(4-(trifluoromethoxy)benzyl)thiophene-2-carboxamide]: ≤ 1000 nM; for `O=C(Nc1cc(F)ccc1F)c1cc([N+](=O)[O-])c(Sc2c(Cl)cncc2Cl)s1` [Example 159, 5-((3,5-dichloropyridin-4-yl)thio)-N-(2,5-difluorophenyl)-4-nitrothiophene-2-carboxamide]: ≤ 1000 nM; for `CCN1CCC(CNC(=O)c2cc([N+](=O)[O-])c(Sc3c(Cl)cncc3Cl)s2)C1` (stereo not drawn) [Example 91, 5-((3,5-dichloropyridin-4-yl)thio)-N-((1-ethylpyrrolidin-3-yl)methyl)-4-nitrothiophene-2-carboxamide]: 1000 to 10000 nM. Regarding `NC(=O)C1CCN(CCCNC(=O)c2cc([N+](=O)[O-])c(Sc3c(Cl)cncc3Cl)s2)CC1` [Example 226, 1-(3-(5-((3,5-dichloropyridin-4-yl)thio)-4-nitrothiophene-2-carboxamido)propyl)piperidine-4-carboxamide], the EC50 was ≤ 1000 nM. The same measure for `CC(=O)c1cc([N+](=O)[O-])c(Sc2c(F)c(F)cc(F)c2F)s1` [Example 36, 1-[4-nitro-5-(2,3,5,6-tetrafluorophenyl)sulfanyl-2-thienyl]ethanone]: 1000 to 10000 nM; for `O=C(NCC(=O)N1CCC(O)CC1)c1cc([N+](=O)[O-])c(Sc2c(Cl)cncc2Cl)s1` [Example 211, 5-((3,5-dichloropyridin-4-yl)thio)-N-(2-(4-hydroxypiperidin-1-yl)-2-oxoethyl)-4-nitrothiophene-2-carboxamide]: 1000 to 10000 nM.
